# Values of other authors in US20260315500A1, “SOLID CANNABINOID COMPOSITION FOR PARENTERAL USE” (Bender Analytical Holding B.V., priority 2023, published 2026).
# Tests used:
# neuronal and glial cells = settings: preclinical; functional, neuroimaging, histologic and biochemical studies
# [1] = 23° C.
SMILES,neuroprotective effects (neuronal and glial cells),water solubility [1]
C=C(C)[C@@H]1CCC(C)=C[C@H]1c1c(O)cc(CCCCC)cc1O [Cannabidiol],"protects neuronal and glial cells, with a remarkable effect on preserving normal myelinogenesis",
"CCCCCc1cc(O)c2c(c1)OC(C)(C)[C@@H]1CCC(C)=C[C@@H]21 [Tetrahydrocannabinol (THC), Tetrahydrocannabinol]",,2.8 µg/mL
